Source: patent US3994885A, “Process for etherifying β-lactam antibiotics” (Eli Lilly and Company, priority 1975, dated 1976)
In brackets after ≈: the same amount, converted by molar mass.

How the values were obtained:
[1] = test system: Shigella sp.; assay: Gradient Plate MIC vs gram-negative microorganisms
[2] = test system: Escherichia coli; assay: Gradient Plate MIC vs gram-negative microorganisms
[3] = test system: Klebsiella pneumoniae; assay: Gradient Plate MIC vs gram-negative microorganisms
[4] = test system: Aerobacter aerogenes; assay: Gradient Plate MIC vs gram-negative microorganisms; details: Klebsiella aerogenes
[5] = test system: Salmonella heidelberg; assay: Gradient Plate MIC vs gram-negative microorganisms; details: Salmonella enterica
[6] = test system: Pseudomonas aeruginosa; assay: Gradient Plate MIC vs gram-negative microorganisms
[7] = test system: Serratia marcescens; assay: Gradient Plate MIC vs gram-negative microorganisms
[8] = test system: Penicillin Resistant Staphylococcus aureus V41; assay: Gradient Plate MIC vs penicillin resistant Staphylococcus aureus, isolate V41
[9] = test system: Penicillin Resistant Staphylococcus aureus V32; assay: Gradient Plate MIC vs penicillin resistant Staphylococcus aureus, isolate V32
[10] = test system: Penicillin Resistant Staphylococcus aureus V84; assay: Gradient Plate MIC vs penicillin resistant Staphylococcus aureus, isolate V84
[11] = test system: Penicillin Resistant Staphylococcus aureus X400; assay: Gradient Plate MIC vs penicillin resistant Staphylococcus aureus, isolate X400
[12] = test system: Penicillin Resistant Staphylococcus aureus X1.1; assay: Gradient Plate MIC vs penicillin resistant Staphylococcus aureus, isolate X1.1
[13] = test system: Staphylococcus aureus; assay: In vitro antibiotic spectrum, disc-plate method; type: cell-based; details: read-out: Diameter of Zone of Inhibition; for zone of inhibition at 500 µg/mL: concentration 0.5 mg/ml
[14] = test system: Bacillus subtilis; assay: In vitro antibiotic spectrum, disc-plate method; type: cell-based; details: read-out: Diameter of Zone of Inhibition; for zone of inhibition at 500 µg/mL: concentration 0.5 mg/ml (ditto)
[15] = test system: Sarcina lutea; assay: In vitro antibiotic spectrum, disc-plate method; type: cell-based; details: Micrococcus luteus, read-out: Diameter of Zone of Inhibition; for zone of inhibition at 500 µg/mL: concentration 0.5 mg/ml (ditto)
[16] = test system: Mycobacterium avium; assay: In vitro antibiotic spectrum, disc-plate method; type: cell-based; details: read-out: Diameter of Zone of Inhibition
[17] = test system: Proteus vulgaris; assay: In vitro antibiotic spectrum, disc-plate method; type: cell-based; details: read-out: Diameter of Zone of Inhibition; for zone of inhibition at 500 µg/mL: concentration 0.5 mg/ml
[18] = test system: Salmonella gallinarum; assay: In vitro antibiotic spectrum, disc-plate method; type: cell-based; details: Salmonella enterica, read-out: Diameter of Zone of Inhibition; for zone of inhibition at 500 µg/mL: concentration 0.5 mg/ml (ditto)
Text: In the following Table III the antibiotic activity of the compounds of the invention is further illustrated by the activity shown for representative compounds as determined by the standard disc-plate method.

[19] = test system: Escherichia coli; assay: In vitro antibiotic spectrum, disc-plate method; type: cell-based; details: read-out: Diameter of Zone of Inhibition; for zone of inhibition at 500 µg/mL: concentration 0.5 mg/ml (ditto)
[20] = test system: Klebsiella pneumoniae; assay: In vitro antibiotic spectrum, disc-plate method; type: cell-based; details: read-out: Diameter of Zone of Inhibition; for zone of inhibition at 500 µg/mL: concentration 0.5 mg/ml (ditto)
[21] = test system: Serratia marcescens; assay: In vitro antibiotic spectrum, disc-plate method; type: cell-based; details: read-out: Diameter of Zone of Inhibition; for zone of inhibition at 500 µg/mL: concentration 0.5 mg/ml (ditto)
[22] = test system: Pseudomonas solanacearum; assay: microbe, parasite or virus in culture; type: cell-based; details: Ralstonia solanacearum, read-out: Diameter of Zone of Inhibition
[23] = concentration 0.1 mg/ml (ditto)

Row | Structure (SMILES) | MIC [1] | MIC [2] | MIC [3] | MIC [4] | MIC [5] | MIC [6] | MIC [7] | MIC ([8]; NS = absence of serum) | MIC ([8]; S = presence of serum) | MIC ([9]; NS = absence of serum) | MIC ([9]; S = presence of serum) | MIC ([10]; NS = absence of serum) | MIC ([10]; S = presence of serum) | MIC ([11]; NS = absence of serum) | MIC ([11]; S = presence of serum) | MIC ([12]; NS = absence of serum) | MIC ([12]; S = presence of serum) | zone of inhibition at 500 µg/mL [13] | zone of inhibition at 500 µg/mL [14] | zone of inhibition at 500 µg/mL [15] | also measured
1 | COC1(NC(=O)C(O)c2ccccc2)C(=O)N2C(C(=O)O)=C(CSc3nnnn3C)CS[C@@H]21 (stereo partly shown) [A, 7-methoxy-7-mandelamido-3-(1-methyl-1H-tetrazole-5-ylthiomethyl)-3-cephem-4-carboxylic acid] | 2 µg/mL (≈ 4.06 µM) | 2.5 µg/mL (≈ 5.08 µM) | 0.6 µg/mL (≈ 1.22 µM) | 0.7 µg/mL (≈ 1.42 µM) | 0.6 µg/mL (≈ 1.22 µM) | > 200 µg/mL | 3.4 µg/mL (≈ 6.9 µM) | 4.2 µg/mL (≈ 8.53 µM) | 6.7 µg/mL | 4.5 µg/mL (≈ 9.14 µM) | 7.6 µg/mL | 3.1 µg/mL (≈ 6.29 µM) | 2 µg/mL | 16.6 µg/mL (≈ 33.7 µM) | 15.4 µg/mL | 0.5 µg/mL (≈ 1.02 µM) | < 0.1 µg/mL |  |  |  | 
2 | COC1(NC(=O)Cc2cccs2)C(=O)N2C(C(=O)O)=C(CSc3nnnn3C)CS[C@@H]21 (stereo partly shown) [B, 7-methoxy-7-[2-(2-thienyl)acetamido]-3-(1-methyl-1H-tetrazol-5-ylthiomethyl)-3-cephem-4-carboxylic acid] | 6.6 µg/mL (≈ 13.7 µM) | 7.9 µg/mL (≈ 16.4 µM) | 0.5 µg/mL (≈ 1.04 µM) | 3.5 µg/mL (≈ 7.25 µM) | 0.9 µg/mL (≈ 1.87 µM) | > 200 µg/mL | 5.4 µg/mL (≈ 11.2 µM) | 1.5 µg/mL (≈ 3.11 µM) | 1.1 µg/mL | 1.8 µg/mL (≈ 3.73 µM) | 2 µg/mL | 0.6 µg/mL (≈ 1.24 µM) | 1 µg/mL | 10 µg/mL (≈ 20.7 µM) | 9.5 µg/mL | 0.4 µg/mL (≈ 0.829 µM) | 0.5 µg/mL |  |  |  | 
3 | COC1(NC(=O)Cn2cnnn2)C(=O)N2C(C(=O)O)=C(CSc3nnc(C)s3)CS[C@@H]21 (stereo partly shown) [C, 7-[2-(1-tetrazolyl)acetamido]-7-methoxy-3-(5-methyl-1,3,4-thiadiazol-2-ylthiomethyl)-3-cephem-4-carboxylic acid] |  |  |  |  |  |  |  |  |  |  |  |  |  |  |  |  |  | 24 mm | 25 mm | 23 mm | zone of inhibition at 500 µg/mL ([16]; concentration 0.5 mg/ml (ditto)): 10 mm; zone of inhibition at 500 µg/mL [17]: 21 mm; zone of inhibition at 500 µg/mL [18]: 26 mm; zone of inhibition at 500 µg/mL [19]: 23 mm; zone of inhibition at 500 µg/mL [20]: 19 mm; zone of inhibition at 500 µg/mL [21]: 19 mm; zone of inhibition at 500 µg/mL [22]: 16 mm
4 | COC1(NC(=O)Cn2cnnn2)C(=O)N2C(C(=O)O)=C(COC(C)=O)CSC21 (stereo not shown) [D, 7-[2-(1-Tetrazolyl)acetamido]:7:methoxy-3-acetoxymethyl-3-cephem-4-carboxylic acid] |  |  |  |  |  |  |  |  |  |  |  |  |  |  |  |  |  | 24 mm | 24 mm | 23 mm | zone of inhibition at 5000 µg/mL ([16]; concentration 5.0 mg/ml): 20 mm; zone of inhibition at 500 µg/mL [17]: 18 mm; zone of inhibition at 500 µg/mL [18]: 25 mm; zone of inhibition at 500 µg/mL [19]: 20 mm; zone of inhibition at 500 µg/mL [20]: 17 mm; zone of inhibition at 500 µg/mL [21]: 17 mm; zone of inhibition at 500 µg/mL [22]: 23 mm
5 | COC1(NC(=O)C(O)c2ccccc2)C(=O)N2C(C(=O)O)=C(CSc3nnc(C)s3)CS[C@@H]21 (stereo partly shown) [E, 7-methoxy-7-mandelamido-3-(5-methyl-1,3,4-thiadiazol-2-ylthiomethyl)-3-cephem-4-carboxylic acid] |  |  |  |  |  |  |  |  |  |  |  |  |  |  |  |  |  |  |  |  | zone of inhibition at 100 µg/mL ([13]; concentration 0.1 mg/ml): 25 mm; zone of inhibition at 100 µg/mL [14, 23]: 22 mm; zone of inhibition at 100 µg/mL [15, 23]: 24 mm; zone of inhibition at 1000 µg/mL ([16]; concentration 1.0 mg/ml): 15 mm; zone of inhibition at 100 µg/mL ([17]; concentration 0.1 mg/ml): 18 mm; zone of inhibition at 1000 µg/mL ([18]; concentration 1.0 mg/ml): 20 mm; zone of inhibition at 100 µg/mL ([19]; concentration 0.1 mg/ml): 22 mm; zone of inhibition at 100 µg/mL [20, 23]: 16 mm; zone of inhibition at 1000 µg/mL ([21]; concentration 1.0 mg/ml): 18 mm; zone of inhibition at 1000 µg/mL [22]: 16 mm
